Measurements taken from patent US20140005163A1 (NOVARTIS AG, priority 2010, published 2014).

Assay: In vivo penetration into dermis of topically treated pigs (skin PK)
Conditions: pig dermis in vivo, topical 0.5% in PG/EtOH 7:3; mean ± SEM, n=8
Description: Small skin areas (4 cm^2) on the dorsolateral back of young domestic pigs were treated topically with 0.5% solutions at different time intervals (1-8 hrs) prior to drug level determination. Skin flaps with the treated sites in the centre were dissected and removed. The skin flaps were spread, and heated metal blocks placed on the test sites for 1 minute to induce separation of epidermis from the dermis. After removal of the loosened epidermal sheets, 1 mm thick dermal sheets were prepared from the treated, de-epidermized skin with a dermatome. From these sheets 6 mm punch samples (6 mm Ø) were collected and analysed for test compound concentration by LC/MS. The procedure described was done with careful avoidance of contamination of the dermal samples with compound attached superficially to the epidermis.
AUC means area under the curve, and is a well known term in clinical pharmacology. The AUC value describes the total uptake of the agent in a time interval.

Row | AUC (0-8 h) in dermis [µg·h/g] | SMILES
1 | 2.8 ± 1.0 | Cc1ncc(-c2ccc3ncc4c(c3c2)n(-c2cn(C)nc2C)c(=O)n4C)cc1OC(C)C [Example 84.1, 1-(1,3-Dimethyl-1H-pyrazol-4-yl)-8-(5-isopropoxy-6-methyl-pyridin-3-yl)-3-methyl-1,3-dihydro-imidazo[4,5-c]quinolin-2-one]
2 | 3.7 ± 1.3 | Cc1nn(C)cc1-n1c(=O)n(C)c2cnc3ccc(-c4cncc(OC(C)C)c4)cc3c21 [Example 58.1, 1-(1,3-Dimethyl-1H-pyrazol-4-yl)-8-(5-isopropoxy-pyridin-3-yl)-3-methyl-1,3-dihydro-imidazo[4,5-c]quinolin-2-one]
